Reference: US10987369B2, “Pdia4 protein as a target for diagnosis, monitoring and treatment of diabetes” (ACADEMIA SINICA, priority 2014, dated 2021)

Tests used:
pdia4^−/−lepr^db/db mice = experiment: Postprandial blood glucose in treated pdia4-/- lepr db/db mice; conditions: metformin 60 mg/kg BW, rosiglitazone 20 mg/kg BW or both, daily, FIG. 5A
Procedure: (A) lepr^db/db and pdia4^−/−lepr^db/db mice received a daily dose of PBS vehicle (Veh), metformin (MET, 60 mg/kg BW) and metformin (MET, 60 mg/kg BW)/rosiglitazone (ROS, 20 mg/kg BW). Their postprandial blood glucose was determined using a glucometer. […] (C) lepr^db/db mice received a daily dose of PBS vehicle (Veh), cytopiloyne (CP, 2.5 mg/kg), cytopiloyne (CP, 2.5 mg/kg)/metformin (MET, 60 mg/kg BW) and cytopiloyne (CP, 2.5 mg/kg)/metformin (MET, 60 mg/kg BW)/rosiglitazone (Ros, 20 mg/kg BW). Their postprandial blood glucose was determined using a glucometer.
To treat mice, PBS or a combination of cytopiloyne (2.5 mg/kg/day), metformin (60 mg/kg/day), and metformin (60 mg/kg/day) plus rosiglitazone (20 mg/kg/day) were fed for the indicated time. Postprandial blood glucose was measured. To treat pdia4^−/−lepr^db/db mice, PBS, metformin (60 mg/kg/day), and metformin (60 mg/kg/day) plus rosiglitazone (20 mg/kg/day) were fed for the indicated time. Postprandial blood glucose was measured.
After the overnight fasting, the mice had free access to food for 2 hr. fasting or postprandial blood glucose levels of the mice were measured using an Elite glucometer (Bayer).

GST-Pdia4 = target: T1, GST-Pdia4 (Homo sapiens, UniProt P13667); experiment: Bovine pancreatic trypsin inhibitor (BPTI)-based assay of disulfide isomerase activity; assay type: biochemical; conditions: reduced BPTI as substrate, CP at different doses, FIG. 5B
T1 construct: made in house; host or cells: E. coli
T1 sequence (P13667 21-645): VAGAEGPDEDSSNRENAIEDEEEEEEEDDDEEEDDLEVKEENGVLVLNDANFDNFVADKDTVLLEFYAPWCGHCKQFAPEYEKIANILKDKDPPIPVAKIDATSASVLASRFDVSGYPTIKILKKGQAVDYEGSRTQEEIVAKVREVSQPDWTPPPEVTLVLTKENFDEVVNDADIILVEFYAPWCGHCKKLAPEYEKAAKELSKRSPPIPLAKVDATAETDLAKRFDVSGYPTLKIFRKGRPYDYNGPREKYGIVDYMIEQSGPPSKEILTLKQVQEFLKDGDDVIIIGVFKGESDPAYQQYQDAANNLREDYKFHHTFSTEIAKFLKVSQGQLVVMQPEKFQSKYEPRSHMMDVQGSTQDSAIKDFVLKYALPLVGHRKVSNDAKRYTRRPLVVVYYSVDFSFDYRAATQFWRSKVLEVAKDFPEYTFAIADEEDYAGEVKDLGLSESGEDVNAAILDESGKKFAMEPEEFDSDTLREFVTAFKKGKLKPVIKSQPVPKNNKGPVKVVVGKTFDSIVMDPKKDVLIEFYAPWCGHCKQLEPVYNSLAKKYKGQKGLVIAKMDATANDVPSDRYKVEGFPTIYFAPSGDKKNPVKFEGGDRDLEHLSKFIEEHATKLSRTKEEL
Procedure: Their postprandial blood glucose was determined using a glucometer. […] Their postprandial blood glucose was determined using a glucometer. Glutathione agarose bead-bound GST-Pdia4 (0.15 μg) were purified from E. coli bacteria.

lepr^db/db mice = experiment: Postprandial blood glucose in treated lepr db/db mice; assay type: in vivo, mouse; conditions: cytopiloyne 2.5 mg/kg daily, FIG. 5C
Procedure: Their postprandial blood glucose was determined using a glucometer. […] Their postprandial blood glucose was determined using a glucometer.
To deplete pancreatic β cells in mice. […] Postprandial blood glucose was measured. […] Postprandial blood glucose was measured.

| SMILES | hyperglycemia (postprandial blood glucose) (pdia4^−/−lepr^db/db mice) | enzymatic (disulfide isomerase) activity of Pdia4 (GST-Pdia4) | enzymatic (disulfide isomerase) activity of Pdia4 (GST-Pdia4; listed as Cytopiloyne) | postprandial blood glucose (lepr^db/db mice) |
| --- | --- | --- | --- | --- |
| CN(C)C(=N)N=C(N)N [metformin] | normalize hyperglycemia | – | – | – |
| CC#CC#CC#CC#CCCC(CO)O[C@@H]1O[C@H](CO)[C@@H](O)[C@H](O)[C@H]1O (stereo partly shown) [cytopiloyne] | – | inhibited Pdia4 activity | suppress the enzymatic activity of Pdia4 | lower postprandial blood glucose |
